This note sets out measurements from patent publication US7268154B2, “Substituted triazole compounds” (Hoffman-La Roche Inc., priority 2005, dated 2007).

This assay concerns the target T1, NK-3 receptor (HEK293 stably expressing NK3) (Homo sapiens, UniProt P29371).
T1 construct: expressed in transfected cells
T1 sequence (P29371 1-465): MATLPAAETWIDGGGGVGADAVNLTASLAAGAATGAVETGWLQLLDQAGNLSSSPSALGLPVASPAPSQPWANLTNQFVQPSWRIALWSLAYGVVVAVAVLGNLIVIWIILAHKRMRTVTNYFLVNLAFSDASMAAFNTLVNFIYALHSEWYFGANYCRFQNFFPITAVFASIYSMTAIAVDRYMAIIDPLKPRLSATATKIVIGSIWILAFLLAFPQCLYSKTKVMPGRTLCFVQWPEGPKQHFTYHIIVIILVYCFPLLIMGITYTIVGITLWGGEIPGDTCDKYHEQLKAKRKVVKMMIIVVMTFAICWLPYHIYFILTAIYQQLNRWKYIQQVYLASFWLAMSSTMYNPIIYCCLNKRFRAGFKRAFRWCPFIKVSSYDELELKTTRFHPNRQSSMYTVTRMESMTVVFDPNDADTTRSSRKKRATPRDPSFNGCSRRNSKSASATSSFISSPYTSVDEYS
The assay is described as follows: Calcium mobilization assay (FLIPR): enhancement of the Neurokinin B agonist response. The assay is classed as cell-based. The settings on record: for EC50: agonist Neurokinin B with or without enhancer, Fluo-4 fluorescence, read-out: EC50 (efficacy as allosteric positive modulator of NK-3 receptor); for fold increase of the Neurokinin B agonistic effect: value in parentheses after EC50. As to the method: Calcium mobilization assay: HEK293 stably expressing NK3 were seeded at a density of 50,000 cells into poly-D-lysine coated 96-well blackwall, clear-bottom microtiter plates (Becton Dickinson Labware, Bedford, Mass.). One day later, the medium was removed, and 100 μl loading medium [HBSS without phenol red, supplemented with 20 mM HEPES-acid, and 2 μM Fluo-4AM solubilized in 0.5 mM Pluronic F-127/DMSO (Molecular Probes, Leiden, The Netherlands)] was added. Cells were loaded for 1 h at 37° C., washed twice with 150 μl assay buffer (loading buffer without Fluo-4 AM), and then 260 μl assay buffer was added. Cells were further pre-incubated at room temperature before adding the agonist Neurokinin B with or without enhancer in 50 μl assay buffer and then measured on a T-channel fluorimetric imaging plate reader (FLIPR, Molecular Devices, Sunnyvale, Calif.). Maximum change in fluorescence over baseline was used to determine agonist response.
The efficacy as allosteric positive modulators of neurokinin 3 (NK-3) receptors is given in the table below as EC50 and fold increase of the Neurokinin B agonistic effect. The EC50 of preferred compounds is <5.0 μM.

Structures are written as SMILES.

One may read the EC50 as the midpoint of the concentration-response curve. Turning to `Cc1cc(Cl)ccc1OC(C)C(=O)N[C@H]1CC[C@@H](n2cc(C(=O)N3CCCC3)nn2)CC1` (relative stereo) [Example 4, 2-(4-Chloro-2-methyl-phenoxy)-N-{cis-4-[4-(pyrrolidine-1-carbonyl)-[1,2,3]triazol-1-yl]-cyclohexyl}-propionamide], the EC50 is 0.56 µM and the “fold increase of the Neurokinin B agonistic effect” value (“fold increase” below) is listed as 1.7 fold.

With `O=C(Cc1c(F)cccc1Cl)N[C@H]1CC[C@@H](n2cc(C(=O)N3CCCC3)nn2)CC1` [Example 1, 2-(2-Chloro-6-fluoro-phenyl)-N-{cis-4-[4-(pyrrolidine-1-carbonyl)-[1,2,3]triazol-1-yl]-cyclohexyl}-acetamide], the EC50 was found to be 3.7 µM and the “fold increase” value is given as 2.3 fold.

With `Cc1cccc(-c2cccc(C(=O)N[C@H]3CC[C@@H](n4cc(C(=O)N5CCCC5)nn4)CC3)c2)c1` [Example 2, 3′-Methyl-biphenyl-3-carboxylic acid {cis-4-[4-(pyrrolidine-1-carbonyl)-[1,2,3]triazol-1-yl]-cyclohexyl}-amide], the concentration giving a half-maximal response (EC50) amounted to 0.2 µM and the “fold increase” value amounted to 1.5 fold.

As for `O=C(N[C@H]1CC[C@@H](n2cc(C(=O)N3CCCC3)nn2)CC1)c1cccc(-c2ccc(F)cc2)c1` [Example 3, 4′-Fluoro-biphenyl-3-carboxylic acid {cis-4-[4-(pyrrolidine-1-carbonyl)-[1,2,3]triazol-1-yl]-cyclohexyl}-amide], the concentration giving a half-maximal response (EC50) worked out at 0.86 µM and the “fold increase” value is reported as 1.6 fold.

`COc1ccccc1C(=O)N[C@H]1CC[C@@H](n2cc(C(=O)N3CCCC3)nn2)CC1` [Example 6, 2-Methoxy-N-{cis-4-[4-(pyrrolidine-1-carbonyl)-[1,2,3]triazol-1-yl]-cyclohexyl}-benzamide]: the 50% effective concentration (EC50) was 4.2 µM and the “fold increase” value amounted to 3.2 fold.

As for `COc1ccc(C(=O)N[C@H]2CC[C@@H](n3cc(C(=O)N4CCCC4)nn3)CC2)cc1OC` [Example 7, 3,4-Dimethoxy-N-{cis-4-[4-(pyrrolidine-1-carbonyl)-[1,2,3]triazol-1-yl]-cyclohexyl}-benzamide], the half-maximal effective concentration (EC50) was 4.5 µM and the “fold increase” value came out at 5.6 fold.

On to `O=C(N[C@H]1CC[C@@H](n2cc(C(=O)N3CCCC3)nn2)CC1)c1ccc(Cl)cc1` [Example 9, 4-Chloro-N-{cis-4-[4-(pyrrolidine-1-carbonyl)-[1,2,3]triazol-1-yl]-cyclohexyl}-benzamide], for which the EC50 was found to be 2.3 µM and the “fold increase” value is recorded as 2.2 fold.

Take `O=C(c1cn([C@H]2CC[C@@H](NC(=O)C3(c4c(F)cccc4Cl)CCCC3)CC2)nn1)N1CCCC1` [Example 17, 1-(2-Chloro-6-fluoro-phenyl)-cyclopentanecarboxylic acid {cis-4-[4-(pyrrolidine-1-carbonyl)-[1,2,3]triazol-1-yl]-cyclohexyl}-amide]: the EC50 is 0.77 µM and the “fold increase” value stood at 1.8 fold.

Take `O=C(Cc1c(F)cccc1Cl)N[C@H]1CC[C@@H](n2cc(C(=O)Nc3ccccc3)nn2)CC1` [Example 19, 1-{cis-4-[2-(2-Chloro-6-fluoro-phenyl)-acetylamino]-cyclohexyl}-1H-[1,2,3]triazole-4-carboxylic acid phenylamide]: the EC50 is 1.8 µM and the “fold increase” value was 1.6 fold.
